This is an account of results in patent US20170044230A1 (USTAV ORGANICKE CHEMIE A BIOCHEMIE AV CR, V.V.I., priority 2014, published 2017).

The target of one data set is T1, human GHS-R1a receptor (Homo sapiens, UniProt Q92847).
T1 construct: purchased Multispan, Hayward, Calif., USA; host or cells: HEK293T cells, isolated plasma membranes
Nature of the data set: Competitive binding studies (displacement of 125I-ghrelin). Conditions: relative to ghrelin = 100. The procedure:
Isolated plasma membranes from the HEK293T cells with transfected human GHS-R1a receptor (Multispan, Hayward, Calif., USA) were used. […] Experiments were carried out in duplicates at least three times. Competitive binding curves were plotted using GraphPad Prism Software (San Diego, Calif., USA) while comparing the best fit for single binding sites models.
(In general: Displacement assays read how much labelled ligand stays bound in the presence of the test substance.)

Data set [1] relates to mouse model of lipopolysaccharide-induced cachexia. Nature of the data set: Mouse model of lipopolysaccharide-induced cachexia (LPS model). The format is in vivo, mice. How it is done:
Male C57BL/6 mice (Charles River, Germany) were housed at a temperature of 22±2° C. under a daily cycle of 12/12 h light/dark (light from 6:00) with free access to water and a standard chow diet St-1 (Mlýn Kocanda, Praha, Czech Republic). One week before the experiment, the mice were placed into separated cages and habituated to an automatic system for food intake monitoring (Developmental workshop IOCB, Prague, Czech Republic). Animals were randomized into two groups, LPS group and control group. At 17:00, the LPS group was injected intraperitoneally (IP) with 100 μg/kg of body weight LPS (Escherichia coli 055:B5 serotype, Sigma) in a volume of 0.2 ml saline. The control group received an IP injection with an equal volume of saline. Food intake was monitored automatically in 10-min intervals. […] 14 (n=4-5 mice per group). Food intake was monitored for another 10 hours.
At the end of the experiment, mice were sacrificed by decapitation, blood was collected, plasma was prepared and stored at −20° C. Hypothalamus was dissected, frozen on dry ice and stored at −80° C., musculus gastrocnemius was dissected, flash-frozen in liquid nitrogen and stored at -80° C. C-reactive protein levels and pro-inflammatory/anti-inflammatory cytokine levels in blood plasma were determined using C-Reactive Protein Mouse ELISA (Biovendor, Bmo, Czech Republic) and Milliplex MAP Rat Cytokine/Chemokine Magnetic Bead Panel (Merck-Millipore, St. Charles, Mo., USA), respectively. Samples of hypothalamus and muscle were homogenized, total RNA was extracted and RNA concentration was determined as previously described (Holubova et al., 2014). Determination of the mRNA expression of genes of interest (MuRFI and MAFbx in muscle, NPY and AgRP in hypothalamus) was performed using an ABI PRISM 7500 instrument (Applied Biosystems, Foster City, Calif., USA). The expression of GAPDH or GUSH was used to compensate for variations in input RNA amounts and the efficiency of reverse transcription, and the modified formula 2-ΔCt was used to calculate the relative gene expression.

For another data set, the system named is fed C57BL/6 male mice. Nature of the data set: Effect of SC administered ghrelin analogs on food intake. The format is in vivo. The gist of the method:
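Food-withdrawn male C57BL/6 mice, dosed SC, received preweighed chow 15 min after injection; intake recorded every 30 min for 8-10 hours, ≥5 mice/group. ED50 = dose giving half-maximal effect at 250 min; maximal effect taken at 480 min after 5 mg/kg.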

Data set [2] concerns 4-5-week old male C57BL/6 mice. Nature of the data set: Growth hormone (GH) release after SC administration to young mice. The format is in vivo. The following applies: 10 min after SC 5 mg/kg. How it is done: 4 and 14 at a dose of 5 mg/kg of body weight (0.2 ml/mouse). 10 min after the injection, blood was collected, plasma was prepared and stored at −20° C. until use. GH levels in the plasma samples were determined by Rat/Mouse Growth Hormone ELISA kit (Merck-Millipore, St. Charles, Mo., USA). Ghrelin analogs no.

Data set [3] is described as follows: Pharmacokinetics in vivo after SC administration to mice. Conditions: SC 5 mg/kg. How it is done:
Mice were housed at a temperature 22±2° C. under a daily cycle of 12/12 h light/dark (light from 6:00) with free access to water and a standard chow diet St-1 (Mlýn Kocanda, Praha, Czech Republic).
4, 6, 14 and 18 at a dose of 5 mg/kg of body weight (0.2 ml/mouse, n=4). Blood was collected from tails before injection and 0.5, 1, 2, 4, 8, 16 and 24 h after injection. Plasma was separated and stored at −20° C.

[4] abbreviates: single SC 5 mg/kg after LPS, 5 mg/kg.
[5] abbreviates: single SC administration, LPS model.

Entries after “also recorded” stand apart in the source; their conditions may differ.

One may read the half-life as the time needed for the level to fall by half in the phase considered. A lower half-life goes with rapid decline.

T1 sequence (Q92847 whole entry): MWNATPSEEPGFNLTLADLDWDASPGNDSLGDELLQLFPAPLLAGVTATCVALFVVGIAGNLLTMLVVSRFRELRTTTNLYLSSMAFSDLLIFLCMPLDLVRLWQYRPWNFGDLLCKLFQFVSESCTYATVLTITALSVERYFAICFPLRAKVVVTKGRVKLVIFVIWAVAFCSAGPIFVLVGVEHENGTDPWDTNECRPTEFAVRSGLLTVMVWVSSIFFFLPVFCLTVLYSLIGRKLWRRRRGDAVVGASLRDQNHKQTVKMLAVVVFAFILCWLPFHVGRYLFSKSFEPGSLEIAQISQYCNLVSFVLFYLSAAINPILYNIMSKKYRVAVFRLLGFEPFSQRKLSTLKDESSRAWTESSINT

On to `CCCCCCCCCCCCCC(=O)NC[C@H](NC(=O)[C@H](CO)NC(=O)CNC)C(=O)N[C@@H](Cc1ccc(Cl)c(Cl)c1)C(=O)N[C@@H](CC(C)C)C(=O)N[C@@H](CO)C(=O)N1CCC[C@H]1C(=O)N[C@@H](CCC(=O)O)C(=O)N[C@@H](Cc1c[nH]cn1)C(=O)N[C@@H](CCC(N)=O)C(=O)N[C@@H](CCCCN)C(=O)N[C@@H](C)C(=O)N[C@@H](CCC(N)=O)C(=O)N[C@@H](CCC(N)=O)C(=O)N[C@@H](CCCNC(=N)N)C(=O)N[C@@H](CCCCN)C(=O)N[C@@H](CCC(=O)O)C(=O)N[C@@H](CO)C(=O)N[C@@H](CCCCN)C(=O)N[C@@H](CCCCN)C(=O)N1CCC[C@H]1C(=O)N1CCC[C@H]1C(=O)N[C@@H](C)C(=O)N[C@@H](CCCCN)C(=O)N[C@@H](CC(C)C)C(=O)N[C@@H](CCC(N)=O)C(=O)N1CCC[C@H]1C(=O)N[C@@H](CCCNC(=N)N)C(=O)O` [Analog 14], for which, at human GHS-R1a receptor, the “% of ghrelin binding” value came to 7%. Also, in data set [1] (single SC 5 mg/kg after LPS), the “levels of C-reactive protein” value is “tended to normalize levels of C-reactive protein” and the “levels of pro-inflammatory cytokine IL-2” value is “normalized levels of pro-inflammatory cytokine IL-2”. Besides, in data set [1] (single SC 5 mg/kg after LPS, monitored 10 hours, 5 mg/kg), the food intake result is “significant increase in food intake; also recorded: increased food intake”. In data set [1] (setting [4]), the “expression of mRNA for orexigenic neuropeptides NPY and AgRP in hypothalamus” value is on record as “significantly increased expression of mRNA; also recorded: increased expression of orexigenic neuropeptides in the hypothalamus”; the “mRNA expression for markers of muscle degradation MuRF-1 and MAFbx” value is listed as “tended to decrease mRNA expression; also recorded: tended to decrease expression of markers of muscle degradation”. Further, in data set [1] (setting [5]), the cachectic state entry is “improved the cachectic state” and the “plasmatic levels of pro-inflammatory cytokines” value is given as “reduced plasmatic levels of pro-inflammatory cytokines”. Further, the “maximal effect at 5 mg/kg on food intake” value in the data set on fed C57BL/6 male mice (SC 5 mg/kg, evaluated 480 min after administration) is listed as 235.5 % of Dpr^3ghr. In addition, in the data set with fed C57BL/6 male mice (SC, fed mice, 250 min after injection), the “ED50 (250 min after injection), effect on food intake” value was found to be 0.65 mg/kg. Moreover, the “GH levels in plasma” value in data set [2] is “did not alter the GH levels”. The “stability in vivo compared with ghrelin or Dpr^3ghrelin” value in data set [3] is “significantly more stable than ghrelin or Dpr^3ghrelin”. Moreover, the half-life in data set [3] (male, C57BL/6, mouse, plasma) was 5 h.
